This series has as its system mouse/rat in vivo micronucleus assay, summary call. Put plainly: In vivo micronucleus assay summary data. An excerpt: The erythrocyte micronucleus test examines the ability of substances to cause chromosome damage in developing red blood cells inside bone marrow. A micronucleus (literally, "little nucleus") is a biomarker of structural chromosome damage (e.g., breaks) and changes in chromosome number (e.g., chromosome loss). If a chromosome is broken or fails to migrate properly with other chromosomes during cell division, the broken piece or lost chromosome will form a small (micro) nucleus of its own in one of the two daughter cells produced. Detection of chromosomal damage is important because it has been linked to birth defects, infertility, and certain diseases, including cancer.
The micronucleus test is performed in rapidly dividing cell populations, and bone marrow is a site of rapid blood cell division. Both bone marrow and peripheral blood samples can be examined for the presence of micronuclei in red blood cells.
Animals are treated with a test substance once or daily over a period of time, and the frequency of micronucleated cells is determined 24-48 hours after the final treatment, depending on the source of the cells (bone marrow or blood) that are examined and the treatment regimen.
The test subjects are rodents (rats or mice) that are exposed to the test substance, usually by oral gavage or injection. Typically, one to three daily treatments of the test substance are administered over a range of doses; the highest dose tested is near the maximum tolerated dose. Groups of negative and positive control animals are included for each test. Bone marrow samples are obtained from all animals 24 hours after the last treatment, and red blood cells are examined for the presence of micronuclei.
B. Peripheral Blood Tests
Micronucleus tests are performed on male and female rodents that are exposed to the test substance orally, dermally, or by inhalation in subchronic (e.g., 28 or 90 days) or short term (e.g., 48-72 hours) toxicity studies. 24 to 48 hours after the final exposure, peripheral blood samples are obtained and red blood cells are examined for the presence of micronuclei. Samples may be examined using standard slide scoring procedures or automated flow cytometric approaches. Since 2007, NTP has routinely relied on flow cytometry to evaluate the frequency of micronucleated cells in peripheral blood.
Peripheral blood micronucleus assays are typically integrated into all NTP toxicity studies, and they also lend themselves to serial monitoring of micronucleus frequencies over time, since blood samples can be obtained without the need to sacrifice the animals.
Blood or bone marrow samples from treated animals are compared to samples from untreated animals. With the slide-based approach for data acquisition, 1000-2000 cells were scored per animal. Using flow cytometric procedures to evaluate blood samples, 20,000 immature red blood cells and around one million mature red blood cells are examined per animal, resulting in a marked increase in the ability to detect small changes in the frequency of micronucleated red blood cells. The data is analyzed using statistical methods to determine if there is a significant increase in the frequency of cells containing micronuclei. Both dose-related responses and the magnitude of response for each independent dose group are considered during the evaluation of the data. For a positive test, both a significant dose response (trend) and at least one significant dose group are required. If only one of these measures is present, the test is determined to be questionable. The absence of either condition results in a negative test. The final conclusions for micronucleus tests are determined by considering the results of statistical analyses, reproducibility of any observed effects, and the magnitude of the effects. Ultimately, both the biological significance as well as statistical significance is considered when reaching a final conclusion.
[…]

Results filed as inconclusive are left out. Activity calls are given as the source filed them. The rule behind the calls is not given here.

For `CN(C)c1ccc(C(c2ccccc2)c2ccc(N(C)C)cc2)cc1`, the outcome was “active; positive”.

Take `[O-][N+](=Nc1ccc(Cl)c(Cl)c1)c1ccc(Cl)c(Cl)c1`: the outcome was “active; positive”.

Take `CCn1cc[n+](C)c1`: the outcome was “inactive; negative”.

For `Nc1nc(=S)c2[nH]cnc2[nH]1`, the outcome was “active; positive”.

`Cc1ccccc1N`: the outcome was “active; negative”.

With `Oc1ccc(/C=C/c2cc(O)cc(O)c2)cc1`, the outcome was “inactive; negative”.

With `Brc1c(Br)c(Br)c(Oc2c(Br)c(Br)c(Br)c(Br)c2Br)c(Br)c1Br`, the outcome was active.

Regarding `CCCCn1cc[n+](C)c1`, the outcome is “inactive; negative”.

As to `CC(C)C=O`, the outcome was “inactive; negative”.

Regarding `ClC(Cl)C(Cl)Cl`, the outcome was “active; positive”.

For the molecule `Nc1ccc(Cc2ccc(N)cc2)cc1`, the outcome is “active; positive (nonstandard protocol)”.

On to `COc1ccc2nc(N)sc2c1`, for which the outcome is “active; positive”.

As to `CC(C)N=C=NC(C)C`, the outcome was “active; positive”.

On to `CC=Cc1ccc(O)c(OC)c1`, for which the outcome was “active; positive”.

As for `C[C@H](Cn1cnc2c(N)ncnc21)OCP(=O)(O)O`, the outcome was “active; positive”.

Consider `CC(=O)C(C)=O`, for which the outcome was “inactive; negative”.

For the molecule `O=C(O)C=Cc1ccc(O)c(O)c1`, the outcome is “active; positive”.

As for `O=C(O)C(Br)Br`, the outcome was “active; positive”.

Turning to `O=S(=O)(O)C(F)(F)C(F)(F)C(F)(F)C(F)(F)C(F)(F)C(F)(F)C(F)(F)C(F)(F)F`, the result was active.

With `COc1cccc2c1C(=O)c1c(O)c3c(c(O)c1C2=O)C[C@@](O)(C(=O)CO)C[C@@H]3O[C@H]1C[C@H](N)[C@H](O)[C@H](C)O1`, the outcome was “active; positive”.

Consider `Cc1cn([C@H]2C[C@H](N=[N+]=[N-])[C@@H](CO)O2)c(=O)[nH]c1=O`, for which the outcome was “active; positive”.

As to `Cc1cccc([N+](=O)[O-])c1`, the outcome is “inactive; negative”.

As to `Oc1ccc(O)cc1`, the outcome was “active; positive”.

For the molecule `C=CC=C`, the outcome is “active; positive (nonstandard protocol)”.

As for `Nc1ncn([C@@H]2O[C@H](CO)[C@@H](O)[C@H]2O)c(=O)n1`, the outcome was “active; positive”.

For `C=CC(=O)OCC(CO)(COC(=O)C=C)COC(=O)C=C`, the outcome was “active; positive”.

As to `O=CC=CC=Cc1ccc([N+](=O)[O-])cc1`, the outcome was “active; positive (nonstandard protocol)”.

As for `CC[C@H](CC[C@@H](C)[C@H]1CC[C@H]2[C@@H]3CC=C4C[C@@H](O)CC[C@]4(C)[C@H]3CC[C@]12C)C(C)C`, the outcome is “inactive; negative”.

For the molecule `CC1=CC(=O)NS(=O)(=O)O1`, the outcome was “active; positive”.

Turning to `Nc1ccc(Cl)cc1N`, the outcome was “active; positive”.

On to `c1ccc(N=NNc2ccccc2)cc1`, for which the outcome is “active; positive”.

`C1CN1c1nc(N2CC2)nc(N2CC2)n1`: the outcome is “active; positive”.

`O=C(O)CS`: the outcome was “active; positive”.

With `CC(C)(C)O`, the outcome is “inactive; negative”.

In the case of `COC(=O)C(c1ccccc1)C1CCCCN1` (stereo not drawn), the outcome was “inactive; negative”.

`[O]=[Sb][O][Sb]=[O]`: the outcome was “active; positive”.

Turning to `O=S1(=O)CCCC1`, the outcome was “inactive; negative”.

Consider `Cc1c2ccccc2c(C)c2c1ccc1ccccc12`, for which the outcome is “active; positive”.

For `Cn1c(=O)c2[nH]cnc2n(C)c1=O`, the outcome is “active; positive”.

`O[C@@H]([C@H](O)[C@H](O)CBr)[C@H](O)CBr`: the outcome is “active; positive”.

Regarding `C=C(C#N)C(=O)OCC`, the outcome is “inactive; negative”.

As to `CC(O)COC(C)(C)C` (stereo not drawn), the outcome was “active; weakly positive”.

As for `O=[N+]([O-])C(Br)=Cc1ccccc1`, the outcome was “active; positive”.

For the origin of these results see PubChem BioAssay AID2202558 (NIEHS Division of Translational Toxicology (DTT)).
